In paper PMC7913927, “Leishmanicidal Activity of Betulin Derivatives in Leishmania amazonensis; Effect on Plasma and Mitochondrial Membrane Potential, and Macrophage Nitric Oxide and Superoxide Production” (Microorganisms, 2021):
Several values for one entry are separate records, joined by “and”; a condition that tells them apart may be missing. Equal values may be shown once. Read-outs that look alike come from different tables or passages of the source.

Key:
[1] = test system: LTB0016 intracellular amastigotes in J774.1 macrophages; experiment: Macrophage-amastigote model, reference strain; type: cell-based, Leishmania amazonensis; details: for Growth (%) Exp1 Infección / Growth (%) Exp1 A/MØ / Growth (%) Exp1 A/100MØ / Growth (%) Exp1 %Control / Growth (%) Exp2 Infección / Growth (%) Exp2 A/MØ / Growth (%) Exp2 A/100MØ / Growth (%) Exp2 %Control / Growth (%) Exp3 Infección / Growth (%) Exp3 A/MØ / Growth (%) Exp3 A/100MØ / Growth (%) Exp3 %Control / Average A/100MØ: 72 h; for Growth (%) Exp1 Infección / Growth (%) Exp2 Infección / Growth (%) Exp3 Infección: % infected macrophages; for Growth (%) Exp1 A/MØ / Growth (%) Exp2 A/MØ / Growth (%) Exp3 A/MØ: amastigotes per infected macrophage; for Growth (%) Exp1 A/100MØ / Growth (%) Exp2 A/100MØ / Growth (%) Exp3 A/100MØ: infection index; for Growth (%) Exp1 %Control / Growth (%) Exp2 %Control / Growth (%) Exp3 %Control: infection index vs DMSO; for Average A/100MØ: average of Exp1-3
Protocol: We used a previously described methodology, with some modifications. Macrophage monolayers, grown in RMPIc medium, for 3 days, were detached from the bottom of the culture chamber, by physical treatment (low temperature and light strokes). Obtained macrophages were seeded in flat-bottom 96-well culture plates, at a density of 2 × 10^5 cells mL^−1 (40,000 macrophages/well), in a final volume of 200 µL. Plates were incubated for 2 h, and the supernatant was discarded to remove non-adhered macrophages. Medium was replaced with stationary-phase promastigotes suspended in 200 µL of RPMIc (2 × 10^6 parasites mL^−1, 400,000 parasites/well), at a macrophage: parasite ratio 1:10 [40]. The plates were incubated for 4 h. Afterwards the medium was replaced with fresh RPMIc and increasing concentrations of compounds or drugs tested were applied, in volumes of 2 µL, according to the different treatment groups. Plates were kept for 72 h, at 37 °C and 5% CO2. The medium was discarded and the wells were washed twice with PBS. Next, a Giemsa staining was performed in situ. It consisted of adding 200 µL of methanol/well, incubating for 5 min, discarding the fixative, and letting it dry at room temperature. Later, the Giemsa solution (10% in PBS w/v, 200 µL/well) was added, incubated for 10 min, and washed with PBS, allowing it to dry. Finally, the bottom of the plates was detached by percussion and the circular bottoms (wells) were fixed to slides with Permount synthetic resin, for later evaluation (Alcazar W., manuscript in preparation). Cell counting was performed with a 100× immersion objective. A minimum of 200 random macrophages were examined. The percentage of infected macrophages (% infection) and the average number of amastigotes present in infected macrophages (amastigotes) were determined. […] The infection rate represents the number of intracellular amastigotes per 100 macrophages evaluated. Additionally, the GI50 for the decrease in the infection rate was calculated. At least three independent experiments were performed. The effect of amphotericin-B (AmB) [Sigma-Aldrich, (St. Louis, MO, USA)] was included as positive control of the assay.

J774.1 macrophages = experiment: Cytotoxicity (Alamar Blue) in macrophages; type: cell-based, murine; details: 72 h
Protocol: In flat-bottom 96-well culture plates, J774.1 macrophages were seeded at a cell density of 5 × 10^4 mL^−1 (10,000 macrophages/well) in 200 µL of RPMIc. After 24 h at 37 °C, 5% CO2, medium was replaced by 180 µL of RPMIc, without phenol red, and increasing concentrations of test compounds in 2-µL volumes. […] At least two independent experiments were performed in duplicate. Based on the inhibition of cell growth caused by the tested compounds, the percentage of growth inhibition compared to untreated cells was calculated. […] Selectivity indices (SI) were calculated, dividing the macrophage CC50 by the parasites GI50 (SI = CC50/GI50).

C=C(C)C1CCC2(C=NO)CCC3(C)C(CCC4C5(C)CCC(=NO)C(C)(C)C5CCC43C)C12 (stereo not drawn) [Compound 18]
SI (CC50/GI50) LTB0016 ([1]; J774.1 CC50 / intracellular amastigote GI50, Table 2): 240.45
Growth (%) Exp1 Infección ([1]; LTB0016, 0.10 µM): 52.43%
Growth (%) Exp1 A/MØ ([1]; LTB0016, 0.10 µM): 3.54
Growth (%) Exp1 A/100MØ ([1]; LTB0016, 0.10 µM): 185.69
Growth (%) Exp1 %Control ([1]; LTB0016, 0.10 µM): 70.78%
Growth (%) Exp2 Infección ([1]; LTB0016, 0.10 µM): 57.50%
Growth (%) Exp2 A/MØ ([1]; LTB0016, 0.10 µM): 3.36
Growth (%) Exp2 A/100MØ ([1]; LTB0016, 0.10 µM): 193.20
Growth (%) Exp2 %Control ([1]; LTB0016, 0.10 µM): 90.86%
Growth (%) Exp3 Infección ([1]; LTB0016, 0.10 µM): 41.73%
Growth (%) Exp3 A/MØ ([1]; LTB0016, 0.10 µM): 2.66
Growth (%) Exp3 A/100MØ ([1]; LTB0016, 0.10 µM): 111.00
Growth (%) Exp3 %Control ([1]; LTB0016, 0.10 µM): 62.52%
Average A/100MØ ([1]; LTB0016, 0.10 µM): 163.30
Growth (%) Exp1 Infección ([1]; LTB0016, 0.50 µM): 36.24%
Growth (%) Exp1 A/MØ ([1]; LTB0016, 0.50 µM): 3.35
Growth (%) Exp1 A/100MØ ([1]; LTB0016, 0.50 µM): 121.51
Growth (%) Exp1 %Control ([1]; LTB0016, 0.50 µM): 46.32%
Growth (%) Exp2 Infección ([1]; LTB0016, 0.50 µM): 32.38%
Growth (%) Exp2 A/MØ ([1]; LTB0016, 0.50 µM): 2.08
Growth (%) Exp2 A/100MØ ([1]; LTB0016, 0.50 µM): 67.35
Growth (%) Exp2 %Control ([1]; LTB0016, 0.50 µM): 31.68%
Growth (%) Exp3 Infección ([1]; LTB0016, 0.50 µM): 25.00%
Growth (%) Exp3 A/MØ ([1]; LTB0016, 0.50 µM): 2.29
Growth (%) Exp3 A/100MØ ([1]; LTB0016, 0.50 µM): 57.25
Growth (%) Exp3 %Control ([1]; LTB0016, 0.50 µM): 32.25%
Average A/100MØ ([1]; LTB0016, 0.50 µM): 82.04
Growth (%) Exp1 Infección ([1]; LTB0016, 1.00 µM): 10.68%
Growth (%) Exp1 A/MØ ([1]; LTB0016, 1.00 µM): 3.15
Growth (%) Exp1 A/100MØ ([1]; LTB0016, 1.00 µM): 33.68
Growth (%) Exp1 %Control ([1]; LTB0016, 1.00 µM): 12.84%
Growth (%) Exp2 Infección ([1]; LTB0016, 1.00 µM): 24.45%
Growth (%) Exp2 A/MØ ([1]; LTB0016, 1.00 µM): 1.29
Growth (%) Exp2 A/100MØ ([1]; LTB0016, 1.00 µM): 31.54
Growth (%) Exp2 %Control ([1]; LTB0016, 1.00 µM): 14.83%
Growth (%) Exp3 Infección ([1]; LTB0016, 1.00 µM): 17.20%
Growth (%) Exp3 A/MØ ([1]; LTB0016, 1.00 µM): 3.00
Growth (%) Exp3 A/100MØ ([1]; LTB0016, 1.00 µM): 51.60
Growth (%) Exp3 %Control ([1]; LTB0016, 1.00 µM): 29.06%
Average A/100MØ ([1]; LTB0016, 1.00 µM): 38.94
Growth (%) Exp1 Infección ([1]; LTB0016, 5.00 µM): 9.37%
Growth (%) Exp1 A/MØ ([1]; LTB0016, 5.00 µM): 1.83
Growth (%) Exp1 A/100MØ ([1]; LTB0016, 5.00 µM): 17.18
Growth (%) Exp1 %Control ([1]; LTB0016, 5.00 µM): 6.55%
Growth (%) Exp2 Infección ([1]; LTB0016, 5.00 µM): 17.07%
Growth (%) Exp2 A/MØ ([1]; LTB0016, 5.00 µM): 1.50
Growth (%) Exp2 A/100MØ ([1]; LTB0016, 5.00 µM): 25.61
Growth (%) Exp2 %Control ([1]; LTB0016, 5.00 µM): 12.04%
Growth (%) Exp3 Infección ([1]; LTB0016, 5.00 µM): 10.71%
Growth (%) Exp3 A/MØ ([1]; LTB0016, 5.00 µM): 2.75
Growth (%) Exp3 A/100MØ ([1]; LTB0016, 5.00 µM): 29.45
Growth (%) Exp3 %Control ([1]; LTB0016, 5.00 µM): 16.59%
Average A/100MØ ([1]; LTB0016, 5.00 µM): 24.08
Growth (%) Exp1 Infección ([1]; LTB0016, 10.00 µM): 5.40%
Growth (%) Exp1 A/MØ ([1]; LTB0016, 10.00 µM): 1.67
Growth (%) Exp1 A/100MØ ([1]; LTB0016, 10.00 µM): 9.00
Growth (%) Exp1 %Control ([1]; LTB0016, 10.00 µM): 3.43%
Growth (%) Exp2 Infección ([1]; LTB0016, 10.00 µM): 11.23%
Growth (%) Exp2 A/MØ ([1]; LTB0016, 10.00 µM): 1.20
Growth (%) Exp2 A/100MØ ([1]; LTB0016, 10.00 µM): 13.48
Growth (%) Exp2 %Control ([1]; LTB0016, 10.00 µM): 6.34%
Growth (%) Exp3 Infección ([1]; LTB0016, 10.00 µM): 3.48%
Growth (%) Exp3 A/MØ ([1]; LTB0016, 10.00 µM): 3.00
Growth (%) Exp3 A/100MØ ([1]; LTB0016, 10.00 µM): 10.44
Growth (%) Exp3 %Control ([1]; LTB0016, 10.00 µM): 5.88%
Average A/100MØ ([1]; LTB0016, 10.00 µM): 10.97
GI50 ([1]; LTB0016 intracellular amastigotes, GraphPad regression, read-out: GI50 (µM) Experiment 1 Regresion): 0.29 µM
GI50 ([1]; LTB0016 intracellular amastigotes, GraphPad regression, read-out: GI50 (µM) Experiment 2 Regresion): 0.34 µM
GI50 ([1]; LTB0016 intracellular amastigotes, GraphPad regression, read-out: GI50 (µM) Experiment 3 Regresion): 0.2 µM
GI50 ([1]; intracellular amastigotes, Supplementary Materials II, read-out: GI50 (µM) LTB0016, mean of three experiments): 0.278 µM and 0.28 µM
GI50 ([1]; summary bound for reference strain LTB0016 and patient isolates, read-out: GI50): < 1 µM
CC50 (J774.1 macrophages): 48.1 µM
